Test results published in patent publication US20150315188A1, “COMPOUNDS AND METHODS FOR TREATMENT OF HYPERTENSION” (MEDIVATION TECHNOLOGIES, INC., priority 2012, published 2015).
Like-named read-outs stand apart in the source and are kept apart here.

Key:
[1] = target: T1, Human adrenergic α2A receptor (Homo sapiens, UniProt P08913); experiment: Radioligand binding, adrenergic α2A (Protocol Group B); design: purchased Milipore (Millipore); conditions: Protocol Group B; for inhibition at 0.1 µM / Percentage inhibition of ligand binding, Adrenergic α2A (0.1 μM): 0.1 μM compound; for inhibition at 0.1 µM: read-out: Percentage inhibition of ligand binding, Adrenergic α2A (0.1 μM); for inhibition at 0.3 µM / Percentage inhibition of ligand binding, Adrenergic α2A (0.3 μM): 0.3 μM compound; for inhibition at 0.3 µM: read-out: Percentage inhibition of ligand binding, Adrenergic α2A (0.3 μM)
T1 sequence (P08913 1-465): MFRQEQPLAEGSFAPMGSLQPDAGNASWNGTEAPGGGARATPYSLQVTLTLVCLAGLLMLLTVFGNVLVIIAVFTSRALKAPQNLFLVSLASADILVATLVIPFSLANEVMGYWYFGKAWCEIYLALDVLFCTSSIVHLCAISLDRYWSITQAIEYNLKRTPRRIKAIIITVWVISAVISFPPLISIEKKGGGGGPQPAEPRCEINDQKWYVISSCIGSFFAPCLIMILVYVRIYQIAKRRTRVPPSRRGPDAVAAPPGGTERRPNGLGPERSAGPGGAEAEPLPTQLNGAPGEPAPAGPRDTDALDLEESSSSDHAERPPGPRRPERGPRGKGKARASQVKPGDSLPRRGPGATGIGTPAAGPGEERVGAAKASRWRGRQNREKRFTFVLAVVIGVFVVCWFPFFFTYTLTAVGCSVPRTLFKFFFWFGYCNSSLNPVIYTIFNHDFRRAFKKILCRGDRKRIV
Procedure, shortened: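 Membranes from recombinant cells expressing the receptor, in 50 mM Tris-HCl pH 7.4 with 5 mM MgCl2, 1 mM CaCl2, 0.2% BSA; compounds incubated with 2 nM [^3H]MK-912 for 60 min at 25° C. Nonspecific binding defined by 10 μM rauwolscine; filtration, counting; percent inhibition of specific binding, or estimated Ki.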

[2] = target: T2, Human adrenergic α2B receptor (Homo sapiens, UniProt P18089); experiment: β-Arrestin GPCR functional assay, adrenergic α2B (Protocol B); type: cell-based; conditions: β-arrestin, antagonist vs nor-epinephrine EC80
T2 sequence (P18089 1-450): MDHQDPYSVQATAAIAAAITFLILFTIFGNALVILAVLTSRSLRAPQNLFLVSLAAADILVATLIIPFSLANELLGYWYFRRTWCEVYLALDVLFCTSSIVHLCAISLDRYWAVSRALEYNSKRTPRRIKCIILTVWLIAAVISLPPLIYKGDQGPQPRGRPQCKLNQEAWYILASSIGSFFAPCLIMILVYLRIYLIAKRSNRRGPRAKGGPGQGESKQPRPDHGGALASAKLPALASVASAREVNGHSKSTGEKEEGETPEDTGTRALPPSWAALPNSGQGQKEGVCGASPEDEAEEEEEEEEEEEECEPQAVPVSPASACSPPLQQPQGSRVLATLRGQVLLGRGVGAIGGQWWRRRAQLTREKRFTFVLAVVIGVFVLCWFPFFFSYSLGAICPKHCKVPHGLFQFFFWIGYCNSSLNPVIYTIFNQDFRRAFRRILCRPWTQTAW
Protocol: To evaluate the activity of compounds in β-Arrestin GPCR functional assays, recombinant CHO cell line (DiscoveRX), over expressed with human adrenergic α2B receptor were used. The experiment was done with kit of DiscoveRX as per recommended protocol of the supplier. Cells were harvested from culture flask using cell dissociation solution (CDS) and plated at a density of 12,000 cells/well in CP reagent (supplied with the kit) in a half area 96-well white polystyrene plate. After 24 h incubation at 37° C., compounds at various concentrations in 1% (final) DMSO were charged to the cells for 30 min at 37° C. Active nor-epinephrine (-NE) at its EC80 concentrations (50 nM) were then added to the cells and incubated for another 90 min at 37° C. Detection mix was prepared by mixing of Path Hunter cell assay buffer, Emerald II solution and Galactone star solution in a ratio of 19:5:1 and incubated with the cells for 60 min at RT in the dark. The reading was taken in Envision at luminescence mode. Biochemical assay results are presented as the percent Inhibition in Table B2a, or IC50 values in Table B2b.

[3] = target: T3, Human adrenergic α1B receptor (Homo sapiens, UniProt P35368); experiment: Radioligand binding, adrenergic α1B (Protocol Group B); design: purchased Milipore (Millipore); conditions: Protocol Group B; for inhibition at 0.1 µM / Percentage inhibition of ligand binding, Adrenergic α1B (0.1 μM): 0.1 μM compound; for inhibition at 0.1 µM: read-out: Percentage inhibition of ligand binding, Adrenergic α1B (0.1 μM); for inhibition at 0.3 µM / Percentage inhibition of ligand binding, Adrenergic α1B (0.3 μM): 0.3 μM compound; for inhibition at 0.3 µM: read-out: Percentage inhibition of ligand binding, Adrenergic α1B (0.3 μM)
T3 sequence (P35368 1-520): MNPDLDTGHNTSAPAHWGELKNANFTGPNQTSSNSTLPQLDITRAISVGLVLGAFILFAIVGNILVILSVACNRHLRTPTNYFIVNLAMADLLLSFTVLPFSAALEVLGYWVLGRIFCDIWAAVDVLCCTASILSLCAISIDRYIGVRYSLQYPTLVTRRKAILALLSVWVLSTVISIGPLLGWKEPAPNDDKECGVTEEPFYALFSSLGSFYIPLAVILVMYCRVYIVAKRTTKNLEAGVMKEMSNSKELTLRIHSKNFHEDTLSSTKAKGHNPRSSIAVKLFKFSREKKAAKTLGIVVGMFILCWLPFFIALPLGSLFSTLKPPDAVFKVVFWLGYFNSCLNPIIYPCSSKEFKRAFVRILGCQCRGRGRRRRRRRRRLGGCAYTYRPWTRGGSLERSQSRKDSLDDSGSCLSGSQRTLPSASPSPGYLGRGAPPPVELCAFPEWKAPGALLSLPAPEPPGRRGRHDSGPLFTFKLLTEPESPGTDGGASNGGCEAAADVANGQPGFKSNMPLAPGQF
Procedure, shortened: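 Recombinant human α1B membranes incubated with test compound and 0.3 nM [3H]prazosin, 60 min at 25 °C, in 50 mM Tris-HCl pH 7.4, 10 mM MgCl2, 1 mM EDTA; nonspecific binding with 10 μM prazosin. Filter-bound radioactivity counted; values are % inhibition of specific binding or estimated Ki.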

[4] = target: T2, Human adrenergic α2B receptor; experiment: Radioligand binding, adrenergic α2B (Protocol Group B); design: purchased Milipore (Millipore); conditions: Protocol Group B; for Ki: estimated Ki; for Percentage inhibition of ligand binding, Adrenergic α2B (10 nM): 0.01 µM; for Percentage inhibition of ligand binding, Adrenergic α2B (30 nM): 0.03 µM
Procedure, shortened: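 Recombinant human α2B receptor membranes incubated with compounds in 50 mM Tris-HCl pH 7.4, 5 mM MgCl2, 1 mM CaCl2, 0.2% BSA, 1% DMSO vehicle. Non-specific binding defined with 10 μM rauwolscine. Values are percent inhibition of specific binding or estimated Ki.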

[5] = 10 nM compound, read-out: Percentage inhibition of ligand binding, Adrenergic α2B (10 nM)
[6] = 30 nM compound, read-out: Percentage inhibition of ligand binding, Adrenergic α2B (30 nM)

Cc1cc(F)cc2c3c(n(CC(C)(O)c4cccnc4)c12)CC1CCCN1C3 (single isomer, unassigned) [76d]
inhibition at 0.1 µM [1]: 24% | inhibition at 0.3 µM [1]: 30% | IC50 ([2]; read-out: IC50 Adrenergic α2B): 0.261 µM | inhibition at 0.1 µM [3]: 6% | inhibition at 0.3 µM [3]: 11% | inhibition at 0.01 µM [4, 5]: 51% | inhibition at 0.03 µM [4, 6]: 74% | Ki ([4]; read-out: Ki α2B): 0.00455 µM

CC(O)(Cn1c2c(c3cc(C(F)(F)F)ccc31)CN1CCCC1C2)c1cccnc1 (single isomer, unassigned) [85a]
inhibition at 0.1 µM [1]: -12% | inhibition at 0.3 µM [1]: -4% | IC50 ([2]; read-out: IC50 Adrenergic α2B): 0.832 µM | inhibition at 0.1 µM [3]: -9% | inhibition at 0.3 µM [3]: 4% | inhibition at 0.01 µM [4, 5]: 9% | inhibition at 0.03 µM [4, 6]: 42% | Ki ([4]; read-out: Ki α2B): 0.0326 µM

CC(O)(Cn1c2c(c3cc(Cl)cc(F)c31)CN1CCCC1C2)c1ccncc1 (single isomer, unassigned) [86c]
inhibition at 0.1 µM [1]: -10% | inhibition at 0.3 µM [1]: 9% | IC50 ([2]; read-out: IC50 Adrenergic α2B): 0.699 µM | inhibition at 0.1 µM [3]: -5% | inhibition at 0.3 µM [3]: 15% | inhibition at 0.01 µM [4, 5]: 24% | inhibition at 0.03 µM [4, 6]: 53% | Ki ([4]; read-out: Ki α2B): 0.013 µM

Cc1ccc2c(c1F)c1c(n2CC(C)(O)c2cccnc2)CCN2CCCC12 (single isomer, unassigned) [87a]
Percentage inhibition of ligand binding, Adrenergic α2A (0.1 μM) [1]: 19% | Percentage inhibition of ligand binding, Adrenergic α2A (0.3 μM) [1]: 33% | IC50 ([2]; read-out: IC50 Adrenergic α2B): 0.303 µM | Percentage inhibition of ligand binding, Adrenergic α1B (0.1 μM) [3]: 13% | Percentage inhibition of ligand binding, Adrenergic α1B (0.3 μM) [3]: 27% | Percentage inhibition of ligand binding, Adrenergic α2B (10 nM) ([4]; 10 nM compound): 30% | Percentage inhibition of ligand binding, Adrenergic α2B (30 nM) ([4]; 30 nM compound): 63% | Ki ([4]; read-out: Ki α2B): 0.0206 µM

Cc1ccc2c(c1F)c1c(n2CC(C)(O)c2cccnc2)CCN2CCCC12 (single isomer, unassigned) [87b]
Percentage inhibition of ligand binding, Adrenergic α2A (0.1 μM) [1]: 31% | Percentage inhibition of ligand binding, Adrenergic α2A (0.3 μM) [1]: 53% | IC50 ([2]; read-out: IC50 Adrenergic α2B): 0.284 µM | Percentage inhibition of ligand binding, Adrenergic α1B (0.1 μM) [3]: 16% | Percentage inhibition of ligand binding, Adrenergic α1B (0.3 μM) [3]: 35% | Percentage inhibition of ligand binding, Adrenergic α2B (10 nM) ([4]; 10 nM compound): 37% | Percentage inhibition of ligand binding, Adrenergic α2B (30 nM) ([4]; 30 nM compound): 66% | Ki ([4]; read-out: Ki α2B): 0.0238 µM

CC(O)(Cn1c2c(c3cc(F)cc(Cl)c31)C1CCCN1CC2)c1ccncc1 (single isomer, unassigned) [88a]
Percentage inhibition of ligand binding, Adrenergic α2A (0.1 μM) [1]: 52% | Percentage inhibition of ligand binding, Adrenergic α2A (0.3 μM) [1]: 72% | Ki ([1]; estimated Ki): 0.0439 µM | IC50 ([2]; read-out: IC50 Adrenergic α2B): 0.388 µM | Percentage inhibition of ligand binding, Adrenergic α1B (0.1 μM) [3]: 15% | inhibition at 0.3 µM [3]: 43% | inhibition at 0.01 µM [4, 5]: 86% | inhibition at 0.03 µM [4, 6]: 93% | Ki ([4]; read-out: Ki α2B): 0.00145 µM

CC(O)(Cn1c2c(c3cc(F)cc(Cl)c31)C1CCCN1CC2)c1ccncc1 (single isomer, unassigned) [88b]
Percentage inhibition of ligand binding, Adrenergic α2A (0.1 μM) [1]: 19% | Percentage inhibition of ligand binding, Adrenergic α2A (0.3 μM) [1]: 44% | IC50 ([2]; read-out: IC50 Adrenergic α2B): 0.166 µM | Percentage inhibition of ligand binding, Adrenergic α1B (0.1 μM) [3]: −1% | Percentage inhibition of ligand binding, Adrenergic α1B (0.3 μM) [3]: 33% | Percentage inhibition of ligand binding, Adrenergic α2B (10 nM) ([4]; 10 nM compound): 70% | Percentage inhibition of ligand binding, Adrenergic α2B (30 nM) ([4]; 30 nM compound): 90% | Ki ([4]; read-out: Ki α2B): 0.00285 µM

CC(O)(Cn1c2c(c3cc(F)cc(Cl)c31)C1CCCN1CC2)c1cccnc1 (single isomer, unassigned) [89c]
Percentage inhibition of ligand binding, Adrenergic α2A (0.1 μM) [1]: 24% | Percentage inhibition of ligand binding, Adrenergic α2A (0.3 μM) [1]: 40% | IC50 ([2]; read-out: IC50 Adrenergic α2B): 0.0455 µM | Percentage inhibition of ligand binding, Adrenergic α1B (0.1 μM) [3]: 0% | Percentage inhibition of ligand binding, Adrenergic α1B (0.3 μM) [3]: 22% | Percentage inhibition of ligand binding, Adrenergic α2B (10 nM) ([4]; 10 nM compound): 54% | Percentage inhibition of ligand binding, Adrenergic α2B (30 nM) ([4]; 30 nM compound): 78% | Ki ([4]; read-out: Ki α2B): 0.0076 µM

Cc1ccc2c(c1)c1c(n2CC(C)(O)c2ccc(F)cc2)CC2CCC1N2C (single isomer, unassigned) [102b]
inhibition at 0.1 µM [1]: -1% | inhibition at 0.3 µM [1]: 23% | IC50 ([2]; IC50 Adrenergic α2B): 0.412 µM | inhibition at 0.1 µM [3]: 5% | inhibition at 0.3 µM [3]: 26% | Ki ([4]; Ki α2B): 0.0193 µM | inhibition at 0.01 µM ([4]; read-out: Percentage inhibition of ligand binding, Adrenergic α2B (10 nM), 10 nM compound): 28% | inhibition at 0.03 µM ([4]; read-out: Percentage inhibition of ligand binding, Adrenergic α2B (30 nM), 30 nM compound): 56% | inhibition at 0.1 µM ([4]; read-out: Percentage inhibition of ligand binding, Adrenergic α2B (0.1 μM), 0.1 μM compound): 70%
